The text below walks through data of patent publication US7939534B2, “Certain chemical entities, compositions, and methods” (Cytokinetics, Inc., priority 2006, dated 2011).

The target of the experiment is T1, chicken gizzard smooth muscle myosin subfragment-1 chemically crosslinked to either cardiac or skeletal actin (Gallus gallus, UniProt P10587).
T1 construct: chicken gizzard smooth muscle myosin subfragment-1; from tissue; host or cells: chicken gizzard
Kind of experiment: Dose dependent smooth muscle myosin ATPase modulation (pyruvate kinase/horseradish peroxidase/pyruvate oxidase-coupled ATPase assay). The conditions noted are these: read-out: IC50 Arithmetic Mean. In kind it is biochemical. The method, boiled down: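 Chicken gizzard smooth muscle myosin S1 crosslinked (EDC/NHS) to cardiac or skeletal actin, concentration titrated to a set ATPase rate. Pyruvate kinase/pyruvate oxidase/HRP-coupled assay, 0.15 mM ATP, 12 mM K-PIPES pH 7.00, 100 mM KCl, amplex red fluorescence; IC50 from 4-parameter fit.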

Turning to `NCc1ncccc1CNC(=O)c1cc(F)c(C2CC2)nc1NCCc1cccc(F)c1` [Compound 81, N-{[2-(aminomethyl)(3-pyridyl)]methyl}(6-cyclopropyl-5-fluoro-2-{[2-(3-fluorophenyl)ethyl]amino}(3-pyridyl))carboxamide], the IC50 (as a rule, the midpoint of a concentration-inhibition curve) stood at 1.32 µM.
For the molecule `C[C@H](CNC(=O)c1cc(F)c(N2CCCC2)nc1NCCc1cccc(F)c1)NC(=O)CN` [Compound 82, N-{(1R)-2-[(5-fluoro-2-{[2-(3-fluorophenyl)ethyl]amino}-6-pyrrolidinyl(3-pyridyl))carbonylamino]-isopropyl}-2-aminoacetamide], the 50% inhibitory concentration (IC50) came to 0.197 µM.
Next, `CS(=O)(=O)N1CC=C(c2ccc(C(=O)NCc3cccnc3)c(NCCc3cccc(F)c3)n2)CC1` [Compound 83, (2-{[2-(3-fluorophenyl)ethyl]amino}-6-[1-(methylsulfonyl)(4-1,2,5,6-tetrahydropyridyl)](3-pyridyl))-N-(3-pyridylmethyl)carboxamide]: 6.4 µM; `CN(C)C(=O)N1CCN(c2ccc(C(=O)NCc3cccnc3)c(NCCc3cccc(F)c3)n2)CC1` [Compound 84, [4-(6-{[2-(3-fluorophenyl)ethyl]amino}-5-[N-(3-pyridylmethyl)carbamoyl](2-pyridyl))piperazinyl]-N,N-dimethylcarboxamide]: 48.5 µM.
Next, `COC(=O)N1CCN(c2ccc(C(=O)NCc3cccnc3)c(NCCc3cccc(F)c3)n2)CC1` [Compound 85, methyl 4-(6-{[2-(3-fluorophenyl)ethyl]amino}-5-[N-(3-pyridylmethyl)carbamoyl]-2-pyridyl)piperazinecarboxylate]: 1.53 µM; `NC1CCN(c2ccc(C(=O)NCc3cccnc3)c(NCCc3cccc(F)c3)n2)C1` (stereo not shown) [Compound 86, (6-(3-aminopyrrolidinyl)-2-{[2-(3-fluorophenyl)ethyl]amino}(3-pyridyl))-N-(3-pyridylmethyl)carboxamide]: 23.1 µM.
Consider `O=C(NCc1cccnc1)c1ccc(N2CCOCC2)nc1NCCc1cccc(F)c1` [Compound 87, (2-{[2-(3-fluorophenyl)ethyl]amino}-6-morpholin-4-yl(3-pyridyl))-N-(3-pyridylmethyl)carboxamide], for which the IC50 is 2.67 µM.
Next, `O=C(NCc1cccnc1)c1ccc(N2CCC[C@@H]2CO)nc1NCCc1cccc(F)c1` [Compound 88, (6-[(2R)-2-(hydroxymethyl)pyrrolidinyl]-2-{[2-(3-fluorophenyl)ethyl]amino}(3-pyridyl))-N-(3-pyridylmethyl)carboxamide]: 10.5 µM.
Next, `CNC(=O)CNC(=O)c1ccc(N2CC[C@H](O)C2)nc1NCCc1cccc(F)c1` [Compound 89, 2-[(6-((3S)-3-hydroxypyrrolidinyl)-2-{[2-(3-fluorophenyl)ethyl]amino}(3-pyridyl))carbonylamino]-N-methylacetamide]: 8.25 µM.
Consider `CNC(=O)CNC(=O)c1ccc(N2CCC(O)CC2)nc1NCCc1cccc(F)c1` [Compound 90, 2-[(2-{[2-(3-fluorophenyl)ethyl]amino}-6-(4-hydroxypiperidyl)(3-pyridyl))carbonylamino]-N-methylacetamide], for which the IC50 was determined as 9.5 µM.
Next, `CC(C)(C)OC(=O)NC1CCN(c2ccc(C(=O)NCc3cccnc3)c(NCCc3cccc(F)c3)n2)C1` (stereo not shown) [Compound 91, (tert-butoxy)-N-[1-(6-{[2-(3-fluorophenyl)ethyl]amino}-5-[N-(3-pyridylmethyl)carbamoyl](2-pyridyl))pyrrolidin-3-yl]carboxamide]: 18.5 µM; `CN(C)[C@@H]1CCN(c2ccc(C(=O)NCc3cccnc3)c(NCCc3cccc(F)c3)n2)C1` [Compound 92, (6-[(3R)-3-(dimethylamino)pyrrolidinyl]-2-{[2-(3-fluorophenyl)ethyl]amino}(3-pyridyl))-N-(3-pyridylmethyl)carboxamide]: 76 µM.
As to `O=C(O)CC1CCN(c2ccc(C(=O)NCc3cccnc3)c(NCCc3cccc(F)c3)n2)C1` (stereo not shown) [Compound 95, 2-[1-(6-{[2-(3-fluorophenyl)ethyl]amino}-5-[N-(3-pyridylmethyl)carbamoyl]-2-pyridyl)pyrrolidin-3-yl]acetic acid], the half-maximal inhibitory concentration (IC50) was 5.6 µM.
Next, `O=C(NCc1cccnc1)c1ccc(N2CCC(c3ccncc3)C2)nc1NCCc1cccc(F)c1` (stereo not shown) [Compound 96, (2-{[2-(3-fluorophenyl)ethyl]amino}-6-(3-(4-pyridyl)pyrrolidinyl)(3-pyridyl))-N-(3-pyridylmethyl)carboxamide]: 2.97 µM; `CNC(=O)CNC(=O)c1ccc(N2CCC(F)(F)C2)nc1NCCc1cccc(F)c1` [Compound 97, 2-[(6-(3,3-difluoropyrrolidinyl)-2-{[2-(3-fluorophenyl)ethyl]amino}(3-pyridyl))carbonylamino]-N-methylacetamide]: 0.931 µM; `NCc1cccc(CNC(=O)c2ccc(N3CCCC3)nc2NCCc2cccc(F)c2)n1` [Compound 98, N-{[6-(aminomethyl)(2-pyridyl)]methyl}(2-{[2-(3-fluorophenyl)ethyl]amino}-6-pyrrolidinyl(3-pyridyl))carboxamide]: 0.213 µM.
Next, `O=C(NCc1cccnc1)c1ccc(N2CCC(C(F)(F)F)C2)nc1NCCc1cccc(F)c1` (stereo not shown) [Compound 99, (2-{[2-(3-fluorophenyl)ethyl]amino}-6-[3-(trifluoromethyl)pyrrolidinyl](3-pyridyl))-N-(3-pyridylmethyl)carboxamide]: 2.49 µM.
Next, `O=C(NCc1cccnc1)c1ccc(N2CCC(F)(F)C2)nc1NCCc1cccc(F)c1` [Compound 100, (6-(3,3-difluoropyrrolidinyl)-2-{[2-(3-fluorophenyl)ethyl]amino}(3-pyridyl))-N-(3-pyridylmethyl)carboxamide]: 0.274 µM; `NCc1cccc(CNC(=O)c2ccc(N3CCCCC3)nc2NCCc2cccc(F)c2)n1` [Compound 101, N-{[6-(aminomethyl)(2-pyridyl)]methyl}(2-{[2-(3-fluorophenyl)ethyl]amino}-6-piperidyl(3-pyridyl))carboxamide]: 0.334 µM.
Consider `NCc1cccc(CNC(=O)c2ccc(N3CC[C@H](O)C3)nc2NCCc2cccc(F)c2)n1` [Compound 102, (6-((3S)-3-hydroxypyrrolidinyl)-2-{[2-(3-fluorophenyl)ethyl]amino}(3-pyridyl))-N-{[6-(aminomethyl)(2-pyridyl)]methyl}carboxamide], for which the IC50 amounted to 3.07 µM.
Next, `NCc1cccc(CNC(=O)c2ccc(N3CC[C@@H](O)C3)nc2NCCc2cccc(F)c2)n1` [Compound 103, (6-((3R)-3-hydroxypyrrolidinyl)-2-{[2-(3-fluorophenyl)ethyl]amino}(3-pyridyl))-N-{[6-(aminomethyl)(2-pyridyl)]methyl}carboxamide]: 2.22 µM; `O=C(NCc1cccnc1)c1ccc(N2CC[C@@H](F)C2)nc1NCCc1cccc(F)c1` [Compound 104, (6-((3R)-3-fluoropyrrolidinyl)-2-{[2-(3-fluorophenyl)ethyl]amino}(3-pyridyl))-N-(3-pyridylmethyl)carboxamide]: 0.107 µM; `NCC1CCN(c2ccc(C(=O)NCc3cccnc3)c(NCCc3cccc(F)c3)n2)CC1` [Compound 105, (6-[4-(aminomethyl)piperidyl]-2-{[2-(3-fluorophenyl)ethyl]amino}(3-pyridyl))-N-(3-pyridylmethyl)carboxamide]: 39.1 µM.
Next, `CNC(=O)CNC(=O)c1ccc(N2CCCCC2)nc1NCCc1cccc(F)c1` [Compound 106, 2-[(2-{[2-(3-fluorophenyl)ethyl]amino}-6-piperidyl(3-pyridyl))carbonylamino]-N-methylacetamide]: 1.12 µM.
Next, `CS(=O)(=O)C1CCN(c2ccc(C(=O)NCc3cccnc3)c(NCCc3cccc(F)c3)n2)C1` (stereo not shown) [Compound 107, (2-{[2-(3-fluorophenyl)ethyl]amino}-6-[3-(methylsulfonyl)pyrrolidinyl](3-pyridyl))-N-(3-pyridylmethyl)carboxamide]: 11.5 µM; `COC[C@@H]1CCCN1c1ccc(C(=O)NCc2cccnc2)c(NCCc2cccc(F)c2)n1` [Compound 108, (6-[(2S)-2-(methoxymethyl)pyrrolidinyl]-2-{[2-(3-fluorophenyl)ethyl]amino}(3-pyridyl))-N-(3-pyridylmethyl)carboxamide]: 67.3 µM; `CC(C)(C)OC(=O)NCC1CCN(c2ccc(C(=O)NCc3cccnc3)c(NCCc3cccc(F)c3)n2)CC1` [Compound 109, (tert-butoxy)-N-{[1-(6-{[2-(3-fluorophenyl)ethyl]amino}-5-[N-(3-pyridylmethyl)carbamoyl](2-pyridyl))(4-piperidyl)]methyl}carboxamide]: 4.56 µM.
On to `CC(C)(C)OC(=O)NC1CCN(c2ccc(C(=O)NCc3cccnc3)c(NCCc3cccc(F)c3)n2)CC1` [Compound 110, (tert-butoxy)-N-[1-(6-{[2-(3-fluorophenyl)ethyl]amino}-5-[N-(3-pyridylmethyl)carbamoyl](2-pyridyl))(4-piperidyl)]carboxamide], for which the half-inhibitory concentration (IC50) worked out at 16.4 µM.
Next, `O=C(NCc1cccnc1)c1ccc(N2CCC(O)(c3ccccc3)CC2)nc1NCCc1cccc(F)c1` [Compound 111, (2-{[2-(3-fluorophenyl)ethyl]amino}-6-(4-hydroxy-4-phenylpiperidyl)(3-pyridyl))-N-(3-pyridylmethyl)carboxamide]: 16.7 µM.
Next, `CCOC(=O)C1CCN(c2ccc(C(=O)NCc3cccnc3)c(NCCc3cccc(F)c3)n2)CC1` [Compound 112, ethyl 1-(6-{[2-(3-fluorophenyl)ethyl]amino}-5-[N-(3-pyridylmethyl)carbamoyl]-2-pyridyl)piperidine-4-carboxylate]: 1.56 µM; `O=C(NCc1cccnc1)c1ccc(N2CC[C@H](F)C2)nc1NCCc1cccc(F)c1` [Compound 113, (6-((3S)-3-fluoropyrrolidinyl)-2-{[2-(3-fluorophenyl)ethyl]amino}(3-pyridyl))-N-(3-pyridylmethyl)carboxamide]: 0.431 µM.
